# Experimental data taken from patent US20110318270A1, “DRUG IDENTIFICATION PROTOCOL FOR TYPE 2 DIABETES BASED ON GENE EXPRESSION SIGNATURES” (VERVA PHARMACEUTICALS LTD, priority 2009, published 2011).
# How the values were obtained:
# [1] = system: Diet-induced obese (DIO) mice; assay: Insulin sensitising effects of CAIs in diet-induced obese mice; assay type: in vivo; details: for reduction in the incremental area under the glucose curve (AUC) compared with vehicle-treated animals / glucose disposal: 50 mg/kg/day for 14 days, intraperitoneal glucose tolerance test
# Protocol: Diet-induced obese (DIO) mice were treated with each CAI at 50 mg/kg/day for 14 days.
# [2] = system: Diet-induced obese (DIO) mice; assay: as above; assay type: in vivo; details: for effect on glucose tolerance: 20-100 mg/kg/day for 14 days
# [3] = system: TNFα-treated 3T3-L1 adipocytes; assay: TNFα-based GES small molecule library screen (MassARRAY, Zrcc score); assay type: cell-based; set-up: key: Zrcc: Z-score normalized for sample variation and gene contribution; details: 10 μM compound in final 24 h of 72 h TNFα (n=2); TTA n=29, TNF n=57
# Protocol: In order to identify new insulin sensitizing agents, a small molecule library consisting of 1120 high-purity, off-patent chemical compounds was screened using the GES. First, 3T3 […] adipocytes were cultured in fourteen 96-well plates and incubated with 3 ng/ml TNFα for 72 h prior to the addition of 10 μM of each compound in the last 24 h of TNFα treatment. Four vehicle control, four TNFα and two TNFα plus ASA- and TGZ-treated wells serving as controls were included per 96-well plate. The aim of the screen was to identify compounds that caused the expression of the 7 gene GES to most closely resemble the expression levels observed in the insulin re-sensitized cells as this is likely to indicate that these cells have restored insulin sensitivity. Following RNA extraction and cDNA synthesis, gene expression analysis of the 7 gene GES was performed using the MassARRAY (Sequenom, San Diego, Calif.) [Cullinan and Cantor Pharmacogenomics 9:1211-1215, 2008]. Data are represented as a Z-score residual coefficient correlation (Zrcc); a Z-score that is normalised for sample to sample variation and for the relative contribution that each gene makes to the predictive power of the GES. Compounds were ranked based on their Zrcc score highest to lowest, and as an initial proof of concept validation test, the top ranked 30 compounds and 23 randomly chosen, mid-ranked compounds were subjected to 2-DOG uptake assays to determine their potential insulin sensitising effects. 3T3 […] adipocytes were incubated with 25 μM of each compound prior to performing 2-DOG uptake assays in the presence or absence of submaximal amounts of insulin (0.5 nM for 15 min).
# The GES-ranked compounds were next broadly grouped into classes based on known mechanism of action or common structural features and re-represented as the mean Zrcc. Only compound classes with 10 or more members were considered further. As a result, the class of treatments that scored the highest, thus representing the most insulin sensitive cells, were the vehicle-treated cells with an average Zrcc score of 1.76±0.37; (p<0.0001 to TNFα treatment and p<0.002 to TNFαplus ASA and TGZ co-treatments).
# In a CD63-only screen, TTA results with a negative score and TNF with a positive (p=0.02). Serving as internal controls in the screen, 3T3-L1 adipocytes were either treated with vehicle (0.2% w/v DMSO) for 72 h (n=55), 3 ng/ml TNFα for 72 h (TNF (n=57) or 3 ng/ml TNFα for 72 h plus 10 μM TGZ and 5 mM ASA in the final 24 h of the TNFα incubation (TTA) (n=29). The gene expression analysis of the GES was performed using the Mass ARRAY system (Cullinan and Cantor, 2008 supra). Data are calculated as a Z-score of the residual component following adjustment for total expression levels and incorporating the correlation coefficients derived from the Bayesian prediction model (Zrcc). The resulting metric is a Z-score that was normalized for sample to sample variation and for the relative contribution that each gene makes to the predictive power of the GES. Data are represented as mea Zrcc values±SEM (with p values compared with TNF-treated sample). The statistical analyses were performed using Student's t-Test assuming 2-tailed distribution and 2-sample equal variance.
# In this assay, 3T3-L1 adipocytes were incubated with TNFα for 72 h followed by the addition of 10 μM of each compound in the final 24 h of the TNFα treatment (n=2). Compounds include VVP808, published insulin sensitizers furazolidone (FUR) (monoamine oxidase inhibitor), mesalamine (MES) and fosfosal (FOS) (NSAIDs), and estradiol-17-beta (EST), and known insulin resistance-inducing compounds such as ajmaline (AJM) (glucose uptake inhibitor) and corticosterone (COR) (glucocorticoid). Serving as internal controls in the screen, 3T3-L1 adipocytes were either treated with vehicle (0.2% DMSO) for 72 h (n=55), 3 ng/ml TNFα for 72 h) TNF) (n=57) or 3 ng/ml TNFα for 72 h plus 10 μM TGZ and […] ASA in the final 24 h of the TNFα incubation (TTA) (n=29). […]
# [4] = system: 3T3-L1 adipocytes; assay: Reversal of TNFα-induced insulin resistance, 2-deoxyglucose (2-DOG) uptake; assay type: cell-based
# Protocol: Initially, a model of TNFα-induced insulin resistance in 3T3-L1 adipocytes was established as described previously (Sartipy and Loskutoff J Biol Chem 278:52298-52306, 2003). Following exposure of 3T3-L1 adipocytes to 3 ng/ml TNFα for 72 h, insulin resistance was determined by the ability of the cells to take up 2-deoxyglucose (2-DOG) in response to insulin. TNFα caused a 37% decrease in 2-DOG uptake compared with insulin-stimulated vehicle-treated cells (p<0.0001) (Table 1).
# 3T3-L1 adipocytes were either treated with vehicle—(Veh), 3 ng/ml TNFα-(TNF) or 3 ng/ml TNFα plus 10 μM TGZ and 5 mM ASA (TTA) as detailed above. Cells were then treated with insulin (0 or 10 nM) for 30 min followed by measurement of 2-deoxyglucose (2-DOG) uptake over the final 10 min of insulin stimulation. Data are presented as % change in 2-DOG uptake compared with vehicle-treated, insulin-stimulated cells and represent mean values±SEM of >3 independent experiments and each data point was assayed in triplicate. […] The amount of 2-DOG transported in vehicle-treated adipocytes was 20.5±3.4 pmol/min/well. Statistical analyses were performed using Student's t-Test assuming 2-tailed distribution and 2-sample equal variance.
# [5] = system: 3T3-L1 adipocytes; assay: HA-tagged GLUT4 translocation to the plasma membrane; assay type: cell-based; details: 10 μM for 20 h (ASA 5 mM), then 0.5 nM insulin
# Protocol: FIGS. 2a and 2b are graphical representations of a compound stimulation of HA-tagged GLUT4 translocation to the plasma membrane in 3T3-L1 adipocytes. Adipocytes were incubated with 10 μM of each compound for 20 h prior to acute stimulation with 0.5 nM of insulin and measurement of HA-tagged GLUT4 translocation to the plasma membrane. a. The effect of the compound classes closest to TNFα plus ASA and TGZ co-incubated samples GES profile (see FIG. 1) on HA-tagged GLUT4 movement. Data are presented as fold change compared with 0.5 nM insulin alone set at 1.0 and represent mean values±SEM; n=12-40 per class. b. Individual CAI members effect on GLUT4 movement. […]
# A secondary screen was next undertaken to test the 8 drug classes ranked most similar to the insulin re-sensitised TNFαplus ASA and TGZ co-treated samples to determine their ability to affect exogenous HA-tagged GLUT4 translocation to the plasma membrane in the presence of submaximal 0.5 nM insulin (Govers et al. Mol Cell Biol 24:6456-6466, 2004). Members from the sodium channel blockers, beta lactams, GABA antagonists, sulfamide antifolates, lipoxygenase inhibitors, dopamine antagonists, carbonic anhydrase inhibitors (CAIs) and antibiotics were incubated at 10 μM doses for 20 h and the overall effect of each class member was assessed and averaged.
# [6] = system: db/db mice; details: for change in blood glucose levels compared with vehicle-treated animals: 300 mg/kg metformin or 20 mg/kg MTZ for 8 d
# Protocol: Mice treated with MTZ (50 mg/kg/d) for 14 d were placed into metabolic cages for 24 h.
Compound,reduction in the incremental area under the glucose curve (AUC) compared with vehicle-treated animals / glucose disposal [1],"Mean Zrcc_GES ± SEM, CLU single gene [3]","Mean Zrcc_GES ± SEM, CS single gene [3]","Mean Zrcc_GES ± SEM, STEAP4 single gene [3]",other results
"Nc1ccccc1S(N)(=O)=O [2ABS, 2-aminobenzene sulphonamide]",did not affect glucose disposal,–,–,–,effect on glucose tolerance [2]: no significant effect
"CC[C@H]1[C@@H]2C[C@H]3[C@@H]4N(C)c5ccccc5[C@]45C[C@@H]([C@H]2[C@H]5O)N3[C@@H]1O [AJM, ajmaline]",–,−0.2,−0.5,0.6,–
"CC(=O)Oc1ccccc1C(=O)O [ASA, aspirin]",–,–,–,–,reversal of TNFα impairment of insulin-stimulated 2-DOG uptake ([4]; 5 mM ASA and/or 10 μM TGZ in final 24 h of 72 h TNFα treatment): fully reversed TNFα effects; HA-GLUT4 translocation above submaximal insulin [5]: increased
"C[C@]12C[C@H](O)[C@H]3[C@@H](CCC4=CC(=O)CC[C@@]43C)[C@@H]1CC[C@@H]2C(=O)CO [COR, corticosterone]",–,0.5,−0.5,−0.2,–
"NS(=O)(=O)c1cc(C2(O)NC(=O)c3ccccc32)ccc1Cl (stereo not shown) [CTD, chlorthalidone]",did not affect glucose disposal,–,–,–,effect on glucose tolerance [2]: no significant effect
"NS(=O)(=O)c1cc(Cl)c(Cl)c(S(N)(=O)=O)c1 [DCP, dichlorphenamide]",did not affect glucose disposal,–,–,–,effect on glucose tolerance [2]: no significant effect
"O=C(O)c1ccccc1OP(=O)(O)O [FOS, fosfosal]",–,0.6,−0.05,0.3,–
"O=C1OCCN1/N=C/c1ccc([N+](=O)[O-])o1 [FUR, furazolidone]",–,0.4,−0.2,0.7,–
"Nc1ccc(O)c(C(=O)O)c1 [MES, mesalamine]",–,−0.9,3.1,−0.4,–
"CNS(=O)(=O)c1nn(C)c(=NC(C)=O)s1 [MMTZ, N-methyl-methazolamide]",not observed,–,–,–,–
"CC(=O)/N=c1/sc(S(N)(=O)=O)nn1C [MTZ, methazolamide]",27%,–,–,–,"body weight, food and water intake or epididymal fat mass compared with vehicle-treated mice [1]: without significant changes; 24 h urine output and creatine excretion ([1]; vs vehicle-treated): not significantly altered; time of administration after which the fasting glucose effect peaked ([6]; db/db mice): 7 days; time of administration after which the fasting glucose effect was seen ([6]; db/db mice): 3 days; lower HbA1c levels ([6]; db/db mice, 50 mg/kg for 28 days, vs vehicle): up to 23%; reduction of glucose urine concentration compared with vehicle-treated mice ([6]; db/db mice, 50 mg/kg/d for 14 d, metabolic cages 24 h): 18%; change in blood glucose levels compared with vehicle-treated animals ([6]; db/db mice): significantly lower change; fasting glucose levels ([6]; db/db mice, 20 or 50 mg/kg/d for 14 days): dose-dependent decrease; body weight, food or water intake ([6]; mouse, in vivo, 20 mg/kg): No change; decrease in food intake ([6]; mouse, in vivo, 50 mg/kg): 27%; food intake ([6]; mouse, in vivo, 50 mg/kg): 4.8 ± 0.5 g/day; change in fasting blood glucose after the treatment period ([6]; pair-fed db/db mice, 8 days, n=6/group): -6.2 ± 1.5 mM; plasma insulin levels ([2]; 14 days, dose range): dose-dependent decrease; circulating glucose levels compared with vehicle-treated mice ([2]; concentrations above 20 mg/kg, 14 days): significant reduction"
CC(=O)/N=c1/sc(S(N)(=O)=O)nn1C [compound 808],–,−0.4,0.2,0.5,–
NS(=O)(=O)c1cc(C(=O)O)c(NCc2ccco2)cc1Cl [furosemide],–,–,–,–,effect on glucose tolerance [2]: no significant effect
CN(C)C(=N)N=C(N)N [metformin],–,–,–,–,change in blood glucose levels compared with vehicle-treated animals ([6]; db/db mice): significantly lower change
"Acute Insulin: insulin, 10 nM for 30 min",–,–,–,–,"2-DOG Uptake (% of insulin-stimulated alone) ([4]; insulin 10 nM 30 min, TNFα 3 ng/ml 72 h, 10 μM TGZ & 5 mM ASA final 24 h, mean ± SEM): 100.0 ± 9.7%; fold increase in 2-DOG uptake above basal level ([4]; vehicle-treated, insulin-stimulated adipocytes (10 nM, 30 min)): 6.6±0.6 fold"
estradiol-17-beta,–,0.5,0.04,0.3,–
